Blank lines part the entries; values can stand above or below the compound they belong to.
Key:
[1] = target: T1, Human immunodeficiency virus type 1 protease (Human immunodeficiency virus 1, UniProt Q72874); assay: Inhibition of HIV1 protease
[2] = tested on: Human immunodeficiency virus 1; assay: Antiviral activity against HIV1 3b isolate infected in human MT4 cells assessed as blockade of viral spread pretreated for 24 hrs followed by viral infection and subsequently treated with compound every 2 to 3 days post infection by ELISA; assay type: functional; details: Human immunodeficiency virus 1, 3b isolate, read-out: CIC95
MDA-MB-231 = assay: Antiproliferative activity against human MDA-MB-231 cells; assay type: functional, cell-based
[3] = target: T1, Human immunodeficiency virus type 1 protease; assay: Inhibition of HIV-1 protease
[4] = Inhibition of ACAT in cholesterol-fed New Zealand rabbit intestional microsomes using [1-14C]oleoyl-CoA as substrate preincubated for 5 mins followed by substrate addition and measured after 5 mins by liquid scintillation counting method; design: species or system Oryctolagus cuniculus, Intestine, Microsome
[5] = target: Delta-type opioid receptor (Mus musculus, UniProt P32300); assay: Inhibition of [3H]-Deltorphin 2 binding to mouse delta opioid receptor expressed in rat GH3 cell membranes by Cheng-Prusoff analysis; design: species or system Cell membrane
Chain of Delta-type opioid receptor (P32300 whole entry): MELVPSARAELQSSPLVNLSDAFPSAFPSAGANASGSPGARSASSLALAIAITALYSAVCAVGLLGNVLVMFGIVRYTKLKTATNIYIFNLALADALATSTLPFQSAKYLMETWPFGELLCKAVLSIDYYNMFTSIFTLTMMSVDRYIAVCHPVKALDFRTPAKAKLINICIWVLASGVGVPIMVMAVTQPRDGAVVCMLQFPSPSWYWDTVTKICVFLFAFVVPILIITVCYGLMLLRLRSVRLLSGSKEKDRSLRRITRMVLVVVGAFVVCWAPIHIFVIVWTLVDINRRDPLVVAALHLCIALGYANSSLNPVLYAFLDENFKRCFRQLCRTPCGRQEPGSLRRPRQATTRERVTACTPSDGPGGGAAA

[6] = Inhibition of HIV2 protease; design: species or system Human immunodeficiency virus 2
[7] = tested on: Poly(dG-dC)oligonucleotide; assay: Binding affinity to poly (dG-dC) (unknown origin) by ethidium displacement assay; assay type: nucleic-acid assay
[8] = tested on: Poly(dA-dT)oligonucleotide; assay: Binding affinity to poly (dA-dT) (unknown origin) by ethidium displacement assay; assay type: nucleic-acid assay
[9] = Growth inhibition of BAEC incubated for 3 days by Coulter counter method; details: Bos taurus, 72 h
CCRF-CEM = assay: Antiproliferative activity against human CEM cells incubated for 96 hrs by Coulter counter method; assay type: functional, cell-based
L1210 = assay: Antiproliferative activity against mouse L1210 cells incubated for 48 hrs by Coulter counter method; assay type: functional, cell-based; details: L1210, 48 h
HeLa [10] = assay: Antiproliferative activity against human HeLa cells incubated for 4 days by Coulter counter method; assay type: functional, cell-based; details: 96 h
HMEC-1 = assay: Growth inhibition of HMEC-1 incubated for 4 days by Coulter counter method; assay type: cell-based; details: Homo sapiens, HMEC-1, 96 h
[11] = Oral bioavailability in monkey at 10 mg/kg; assay type: ADME, organism-based, Macaca mulatta; details: rhesus monkey, in vivo
[12] = Half life in monkey at 10 mg/kg, po; assay type: ADME, organism-based, Macaca mulatta; details: rhesus monkey, in vivo
[13] = Selectivity index, ratio of Ki for human CB1 receptor expressed in HEK cells to Ki for human CB2 receptor expressed in HEK cells
Cannabinoid receptor 2 = Cannabinoid receptor 2 (Homo sapiens, UniProt P34972); assay: Displacement of [3H]CP-55940 from human CB2 receptor expressed in HEK cells by competitive binding assay; assay type: cell-based
Chain of Cannabinoid receptor 2 (P34972 whole entry): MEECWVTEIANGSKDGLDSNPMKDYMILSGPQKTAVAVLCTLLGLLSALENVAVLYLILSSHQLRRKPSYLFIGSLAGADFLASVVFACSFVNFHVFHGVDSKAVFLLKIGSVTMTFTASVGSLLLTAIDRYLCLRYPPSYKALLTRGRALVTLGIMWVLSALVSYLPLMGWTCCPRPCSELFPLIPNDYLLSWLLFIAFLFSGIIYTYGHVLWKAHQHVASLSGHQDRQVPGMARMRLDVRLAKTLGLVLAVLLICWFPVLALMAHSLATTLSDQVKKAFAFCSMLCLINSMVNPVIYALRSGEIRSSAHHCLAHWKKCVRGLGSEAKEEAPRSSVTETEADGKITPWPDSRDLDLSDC

Cannabinoid receptor 1 = Cannabinoid receptor 1 (Homo sapiens, UniProt P21554); assay: Displacement of [3H]CP-55940 from human CB1 receptor expressed in HEK cells by competitive binding assay; assay type: cell-based
Chain of Cannabinoid receptor 1 (P21554 whole entry): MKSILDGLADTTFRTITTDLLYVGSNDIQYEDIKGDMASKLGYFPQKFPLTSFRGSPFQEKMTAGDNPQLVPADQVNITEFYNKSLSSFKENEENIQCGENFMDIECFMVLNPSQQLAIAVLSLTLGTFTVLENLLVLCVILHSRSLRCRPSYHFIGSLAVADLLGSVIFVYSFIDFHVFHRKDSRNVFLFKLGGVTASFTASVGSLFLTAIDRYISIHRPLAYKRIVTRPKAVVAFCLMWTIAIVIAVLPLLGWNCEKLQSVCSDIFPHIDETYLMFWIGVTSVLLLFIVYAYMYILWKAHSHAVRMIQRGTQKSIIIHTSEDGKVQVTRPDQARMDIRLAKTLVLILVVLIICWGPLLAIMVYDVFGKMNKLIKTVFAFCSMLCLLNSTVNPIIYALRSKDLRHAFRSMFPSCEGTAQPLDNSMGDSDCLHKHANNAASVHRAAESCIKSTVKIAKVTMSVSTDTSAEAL

PC-3 [14] = assay: Cytotoxicity activity against human PC-3 cells incubated for 96 hrs by MTT method; assay type: functional, cell-based; details: PC-3, 96 h
CAKI-2 = assay: Cytotoxicity against human Caki-2 cells incubated for 96 hrs by MTT assay; assay type: functional, cell-based; details: CAKI-2, 96 h
A549 = assay: Cytotoxicity against human A549 cells incubated for 96 hrs by MTT assay; assay type: functional, cell-based; details: A549, 96 h
HL-60 [15] = assay: Cytotoxicity activity against human HL-60 cells incubated for 96 hrs by MTT assay; assay type: functional, cell-based; details: HL-60, 96 h
HeLa [16] = assay: Cytotoxicity against human HeLa cells incubated for 96 hrs by MTT assay; assay type: functional, cell-based
Neprilysin = Neprilysin (Homo sapiens, UniProt P08473); assay: Inhibition of NEP 24.11 (unknown origin) by fluorometric assay
Chain of Neprilysin (P08473 whole entry): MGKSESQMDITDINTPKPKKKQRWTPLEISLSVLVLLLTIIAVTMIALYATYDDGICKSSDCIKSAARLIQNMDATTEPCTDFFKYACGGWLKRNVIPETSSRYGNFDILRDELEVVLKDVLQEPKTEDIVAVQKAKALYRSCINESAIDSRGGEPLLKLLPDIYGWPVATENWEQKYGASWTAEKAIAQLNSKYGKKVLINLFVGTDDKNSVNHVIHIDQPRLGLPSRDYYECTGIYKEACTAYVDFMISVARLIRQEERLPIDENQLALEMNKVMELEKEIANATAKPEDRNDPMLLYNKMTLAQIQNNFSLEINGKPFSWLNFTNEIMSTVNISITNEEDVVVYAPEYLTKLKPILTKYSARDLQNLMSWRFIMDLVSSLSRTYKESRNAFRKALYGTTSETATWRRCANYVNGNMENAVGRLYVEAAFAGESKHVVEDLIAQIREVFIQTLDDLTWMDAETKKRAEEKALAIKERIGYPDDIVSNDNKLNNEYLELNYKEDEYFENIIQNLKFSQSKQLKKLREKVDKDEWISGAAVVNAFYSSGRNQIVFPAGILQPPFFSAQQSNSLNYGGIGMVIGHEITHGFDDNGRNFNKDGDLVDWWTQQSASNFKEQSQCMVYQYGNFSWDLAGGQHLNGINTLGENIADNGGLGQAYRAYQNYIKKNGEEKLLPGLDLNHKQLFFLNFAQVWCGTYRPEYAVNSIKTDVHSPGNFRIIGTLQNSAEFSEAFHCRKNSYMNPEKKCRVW

PC-3 [17] = assay: Cytotoxicity against human PC-3 cells incubated for 96 hrs by MTT assay; assay type: functional, cell-based; details: PC-3, 96 h
HL-60 [18] = assay: Cytotoxicity against human HL-60 cells incubated for 96 hrs by MTT assay; assay type: functional, cell-based; details: HL-60, 96 h
HT-29 = assay: Cytotoxicity against human HT-29 cells incubated for 96 hrs by MTT assay; assay type: functional, cell-based; details: HT-29, 96 h
Mus musculus [19] = assay: Immunosuppressive activity in B6D2F1 mouse model of graft-versus-host disease assessed as mean survival days at 1 mg/kg, ip administered for day 1 to day 10 (day 6 omitted) and measured at day 60; assay type: functional; details: time 60 day
Mus musculus [20] = assay: Immunosuppressive activity in B6D2F1 mouse model of graft-versus-host disease assessed as mean survival days at 3 mg/kg, ip administered for day 1 to day 10 (day 6 omitted) and measured at day 60; assay type: functional; details: time 60 day
Rattus norvegicus = assay: Immunosuppressive activity in Lewis rat model of Heart Allotransplantation assessed as mean survival days at 6 mg/kg, ip administered for 10 days by Manntel-Haenszel test; assay type: functional; details: time 10 day
[21] = target: D(2) dopamine receptor (Bos taurus) (UniProt P20288); assay: Modulation of [3H]Spiroperidol/N-Propylnorapomorphine binding to dopamine D2 receptor in bovine striatal membranes incubated for 1 hr in presence of Gpp(NH)p by Cheng-Prusoff analysis; assay type: cell membranes; details: Striatum, Membrane, filed as modulator
Chain of D(2) dopamine receptor (Bos taurus) (P20288 whole entry): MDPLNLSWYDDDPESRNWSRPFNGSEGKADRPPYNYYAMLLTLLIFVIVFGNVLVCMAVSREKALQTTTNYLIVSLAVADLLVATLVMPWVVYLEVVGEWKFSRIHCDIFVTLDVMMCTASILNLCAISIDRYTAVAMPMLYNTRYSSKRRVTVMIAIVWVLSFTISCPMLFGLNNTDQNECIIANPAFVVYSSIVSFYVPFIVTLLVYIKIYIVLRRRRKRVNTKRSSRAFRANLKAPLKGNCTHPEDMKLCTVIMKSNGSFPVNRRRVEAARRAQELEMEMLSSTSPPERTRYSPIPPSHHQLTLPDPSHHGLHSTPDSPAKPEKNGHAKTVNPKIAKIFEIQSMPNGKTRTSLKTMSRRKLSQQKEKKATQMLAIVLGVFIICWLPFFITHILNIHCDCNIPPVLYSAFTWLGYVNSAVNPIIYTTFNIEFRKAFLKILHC

[22] = target: D(2) dopamine receptor (Bos taurus) (UniProt P20288); assay: Modulation of [3H]Spiroperidol/N-Propylnorapomorphine binding to dopamine D2 receptor in bovine striatal membranes incubated for 1 hr by Cheng-Prusoff analysis; assay type: cell membranes; details: Striatum, Membrane, filed as modulator

SMILES: O=C(N[C@@H](Cc1ccccc1)[C@@H](O)C[C@@H](Cc1ccccc1)C(=O)N[C@H]1c2ccccc2C[C@H]1O)O[C@H]1CCOC1
- IC50 [1]: < 0.03 nM
- IC95 [2]: 0.003 µM

SMILES: CC(C)C(NC(=O)C[C@@H]1O[C@@H]1[C@H](Cc1ccccc1)NC(=O)[C@H](CC(N)=O)NC(=O)c1ccc2ccccc2n1)C(C)C
- IC50 [3]: 0.02 µM

SMILES: CC(C)C[C@H](NC(=O)[C@H](Cc1ccccc1)N/C=C/NC(=O)CNC(=O)[C@@H](N)Cc1ccc(O)cc1)C(=O)O
- Ki [5]: 0.587 µM

SMILES: CC(C)(C)NC(=O)[C@@H]1C[C@@H]2CCCC[C@@H]2CN1C[C@@H](O)[C@H](Cc1ccccc1)NC(=O)[C@H](CC(N)=O)NC(=O)c1ccc2ccccc2n1
- IC50 [6]: 0.0005 µM
- IC95 [2]: 0.022 µM

SMILES: CS(=O)(=O)c1ccc(-c2cn(-c3ccc(Cl)c(-c4ccccn4)c3)nn2)c(Cl)c1
- IC50 [9]: 40 µM
- IC50 (CCRF-CEM): 50 µM
- IC50 (L1210): 82 µM
- IC50 (HeLa [10]): > 100 µM
- IC50 (HMEC-1): 9.6 µM

SMILES: CC(C)(C)NS(=O)(=O)CC[C@@H]1O[C@@H]1[C@H](Cc1ccccc1)NC(=O)[C@@H](NC(=O)OCc1ccccc1)C(C)(C)S(C)(=O)=O
- IC50 [3]: 0.0202 µM

SMILES: CCCCCCCCCCCCCCCCS(=O)(=O)N[C@@H](CO)[C@H](O)/C=C/c1ccc(Cl)cc1
- IC50 (PC-3 [14]): 123 µM
- IC50 (CAKI-2): 103 µM
- IC50 (A549): 96 µM
- IC50 (HL-60 [15]): 28 µM
- IC50 (HeLa [16]): 65 µM

SMILES: COC(=O)c1ccc(-c2cn(-c3cccc(-c4ccccc4)c3)nn2)cc1
- IC50 [9]: 0.42 µM
- IC50 (CCRF-CEM): 0.92 µM
- IC50 (L1210): 1.1 µM
- IC50 (HeLa [10]): 1.1 µM
- IC50 (HMEC-1): 0.62 µM

SMILES: O=C(O)CC(=O)N[C@@H](CS)Cc1ccccc1
- Ki (Neprilysin): 0.0023 µM

SMILES: CCN(C(C)C)S(=O)(=O)CC[C@@H]1O[C@@H]1[C@H](Cc1ccccc1)NC(=O)[C@H](CC(C)(C)S(C)(=O)=O)NC(=O)c1ccc2ccccc2n1
- IC50 [3]: 0.0066 µM

SMILES: CCCCCCCCCCCCCC(=O)N[C@@H](CO)[C@H](O)c1ccc([N+](=O)[O-])cc1
- IC50 (PC-3 [14]): 123 µM
- IC50 (CAKI-2): 107 µM
- IC50 (PC-3 [17]): 83 µM
- IC50 (A549): 64 µM
- IC50 (HL-60 [18]): 28 µM
- IC50 (HT-29): 96 µM
- IC50 (HL-60 [15]): 48 µM
- IC50 (HeLa [16]): 78 µM

SMILES: CCCCCn1cc(-c2cn(C34CC5CC(CC(C5)C3)C4)nn2)c(=O)c2cc(-c3ccco3)ccc21
- Ki (Cannabinoid receptor 1): > 10 µM

SMILES: N=C(N)NCCCCCCC(=O)NC(O)C(=O)NCCCCNCCCN (configuration not stated)
- Survival (Mus musculus [19]): 38 days
- Survival (Mus musculus [20]): 57 days
- Survival (Rattus norvegicus): 38 days

SMILES: CC(C)(C)NC(=O)[C@@H]1C[C@@H]2CCCC[C@@H]2CN1C[C@@H](O)[C@H](Cc1ccccc1)NC(=O)OC(C)(C)C
- IC50 [1]: ≥ 3000 nM

SMILES: CC(C)C[C@H](NC[C@@H]1CCCN1)C(=O)NCC(N)=O
- KiH [21]: 0.13 nM
- KiL [21]: 60 nM
- KiH [22]: 0.09 nM
- KiL [22]: 73.2 nM

Further lines, with some results ahead:

- IC50 (MDA-MB-231): ≥ 200 µM
SMILES: O=C(OCc1ccc2c(c1)OCO2)c1ccc(Cl)c(Cl)c1

- IC50 [4]: 0.32 µM
SMILES: CCCCCCCCCCCCCCCCCNC(=O)Nc1c(OC)cc(OC)cc1OC

- Kapp [7]: 7.4 10^5/M
- Kapp [8]: 16.9 10^5/M
SMILES: CN(C)CCCNC(=O)c1cc(NC(=O)c2cc(/C=C/c3cc([N+](=O)[O-])cn3C)cn2C)cn1C

- IC50 (MDA-MB-231): ≥ 200 µM
SMILES: COc1ccc(C(=O)NCc2ccc3c(c2)OCO3)cc1

- bioavailability [11]: 12%
- half-life [12]: 20 h
SMILES: C=CC[C@H](C(=O)NO)[C@@H](CC(C)C)C(=O)N[C@@H](Cc1ccccc1)C(=O)c1c[nH]c2ccccc12

- Ki (Cannabinoid receptor 2): 0.0004 µM
- Ki (Cannabinoid receptor 1): 0.033 µM
SMILES: CCCCCn1cc(-c2nc(C34CC5CC(CC(C5)C3)C4)no2)c(=O)c2cc(-c3ccco3)ccc21
- Ratio Ki [13]: >82

- IC50 [4]: 0.063 µM
SMILES: CC(C)c1cccc(C(C)C)c1NC(=O)NCC1(c2cccc(N(C)C)c2)CCCC1

From ChEMBL document CHEMBL4732045, “Amide Bond Bioisosteres: Strategies, Synthesis, and Successes” (J Med Chem, 2020)
